Measurements taken from article PMC6543015, “Exploring the overlapping binding sites of ifenprodil and EVT‐101 in GluN2B‐containing NMDA receptors using novel chicken embryo forebrain cultures and molecular modeling” (Pharmacology Research & Perspectives, 2019).
Read-outs that look alike come from different tables or passages of the source.

Tests used:
[1] = molecular target: native GluN2B‐containing NMDA receptors (Gallus gallus, UniProt F1NMB0+Q4KXT1); assay: Calcium influx measurement (Fura-2) in E10 chicken embryo forebrain cell culture at DIV1, induced with NMDA and glycine; format: cell-based, chicken (Gallus gallus); conditions: for EC50: primary cultures from chicken embryo forebrain (E10), read-out: EC50, inhibition of calcium influx; for Emax: read-out: calcium influx blocked
Experimental: The eggs were submerged in crushed ice for 7 minutes to anesthetize the embryos before decapitation. The forebrain was surgically removed, and the meninges were discarded. The tissue was homogenized by chopping with a scalpel before trypsination in buffered solutions as previously described.30, 31 Cells were suspended in DMEM supplemented with 1% N‐2, 100 U/mL penicillin and 0.1 mg/mL streptomycin (Pen‐Strep), 10% fetal bovine serum (FBS), and 0.75% GlutaMAX™. Cells were seeded (1.7 × 10^6 cells/mL) on 35 mm Petri dishes or in 96‐well plates (Corning® CellBIND® 96 well plates; Merck) precoated with poly‐L‐lysine, and incubated at 37°C, with 5% CO2. These cultures contain an abundance of functional GluN2B receptors on DIV1 (A. Ring, pers. commun.).
Fura‐2 fluorescence was measured using CLARIOstar® plate reader (BMG Labtech, Germany). Intracellular Ca^2+ changes were expressed as changes in 340/380 nm fluorescence emission ratio. The wash buffer was then carefully replaced with test compound (20 nmol/L to 10 μmol/L) in standard buffer (n = 4 per concentration, two compounds per 96‐well plate). NMDA receptor‐mediated Ca^2+ influx was induced by NMDA (0.2 mmol/L) and glycine (0.1 mmol/L) in each well. The resulting rise in intracellular Ca^2+ was expressed as a change in the 340/380 emission ratio by subtracting the initial Ca^2+ level from the NMDA stimulated Ca^2+ responses. […] Inhibition curves for each compound were established by dose response experiments (n ≥ 5). For Ro 04‐5595, four representative IC50 values were chosen to make Figure 2A, while 13 experiments around the median were chosen for Figure 2C.

[2] = molecular target: recombinant GluN1/GluN2B receptors; conditions: recombinant GluN1/GluN2B in X. laevis oocytes, electrophysiology; cited from earlier work
[3] = molecular target: recombinant GluN1/GluN2B receptors; design: method as in PMID 22197913; conditions: recombinant GluN1/GluN2B in X. laevis oocytes, electrophysiology; cited from earlier work
[4] = E10 chicken forebrain cell culture at DIV 1, NMDA 200 and glycine 100 μmol/L, Fura-2, read-out: IC50 Chicken (present work)
[5] = maximal block by GluN2B-specific allosteric antagonists, chicken forebrain culture

Chain of native GluN2B‐containing NMDA receptors (F1NMB0 entry or part of it, other chains not shown): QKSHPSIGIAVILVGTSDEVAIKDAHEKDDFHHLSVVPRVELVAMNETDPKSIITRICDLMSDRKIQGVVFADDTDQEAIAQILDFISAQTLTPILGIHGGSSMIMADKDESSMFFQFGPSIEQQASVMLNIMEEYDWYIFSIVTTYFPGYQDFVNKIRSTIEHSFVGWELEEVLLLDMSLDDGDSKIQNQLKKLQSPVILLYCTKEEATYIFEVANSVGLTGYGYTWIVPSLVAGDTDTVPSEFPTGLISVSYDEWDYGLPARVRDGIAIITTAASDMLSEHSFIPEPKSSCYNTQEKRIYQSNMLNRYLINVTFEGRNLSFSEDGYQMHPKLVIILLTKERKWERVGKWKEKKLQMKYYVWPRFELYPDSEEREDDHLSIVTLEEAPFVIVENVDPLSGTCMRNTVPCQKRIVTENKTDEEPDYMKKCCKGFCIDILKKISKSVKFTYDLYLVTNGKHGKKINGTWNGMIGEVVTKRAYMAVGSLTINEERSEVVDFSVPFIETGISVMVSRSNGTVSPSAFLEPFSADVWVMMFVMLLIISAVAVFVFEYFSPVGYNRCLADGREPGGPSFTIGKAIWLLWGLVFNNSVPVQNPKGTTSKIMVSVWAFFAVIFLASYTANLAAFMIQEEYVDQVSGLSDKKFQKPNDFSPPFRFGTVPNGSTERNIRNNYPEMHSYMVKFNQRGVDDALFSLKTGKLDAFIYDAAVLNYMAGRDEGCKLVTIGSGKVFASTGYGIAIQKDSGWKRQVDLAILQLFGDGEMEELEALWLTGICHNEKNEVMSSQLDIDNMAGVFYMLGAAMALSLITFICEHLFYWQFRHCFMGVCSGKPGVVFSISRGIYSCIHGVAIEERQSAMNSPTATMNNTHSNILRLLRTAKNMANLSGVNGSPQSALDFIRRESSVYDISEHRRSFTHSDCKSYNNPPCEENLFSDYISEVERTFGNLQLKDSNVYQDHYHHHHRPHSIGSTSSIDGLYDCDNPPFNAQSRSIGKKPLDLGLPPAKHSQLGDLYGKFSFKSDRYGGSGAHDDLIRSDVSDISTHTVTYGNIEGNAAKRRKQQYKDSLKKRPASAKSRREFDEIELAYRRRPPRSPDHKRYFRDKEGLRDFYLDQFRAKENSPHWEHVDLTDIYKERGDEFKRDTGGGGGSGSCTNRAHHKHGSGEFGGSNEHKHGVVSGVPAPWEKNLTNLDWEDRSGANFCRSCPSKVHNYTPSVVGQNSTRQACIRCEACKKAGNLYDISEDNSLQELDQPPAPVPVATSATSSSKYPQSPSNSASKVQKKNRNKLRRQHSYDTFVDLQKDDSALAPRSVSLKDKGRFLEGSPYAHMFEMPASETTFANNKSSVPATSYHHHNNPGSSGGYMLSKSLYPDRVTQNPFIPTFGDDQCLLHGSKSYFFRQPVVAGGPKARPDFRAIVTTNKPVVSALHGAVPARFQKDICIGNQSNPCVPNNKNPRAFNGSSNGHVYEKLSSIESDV

SMILES | IC50 [1, 4] | EC50 [1] | Emax [1] | IC50 [2] | IC50 [3] | calcium influx blocked [1, 5] | IC50 ([1]; chicken forebrain culture calcium influx assay, read-out: IC50 value) | Emax [1, 5]
CC(C(O)c1ccc(O)cc1)N1CCC(Cc2ccccc2)CC1 (stereo not shown) [Ifenprodil, ifenprodil] | 103 ± 39 nM | 100 ± 40 nM | ~70% | 110 ± 10 nM | 130 ± 10 nM | – | – | –
Cc1nccn1Cc1cc(-c2ccc(F)c(C(F)F)c2)cnn1.Cl.Cl [EVT‐101] | 22 ± 8 nM | 22 ± 8 nM | – | 12 ± 0.2 nM | – | approximately 70% | – | –
C[C@@H]([C@H](O)c1ccc(O)cc1)N1CCC(Cc2ccccc2)CC1 [Ro 25‐6981] | 60 ± 27 nM | 60 ± 30 nM | – | 42 ± 6 nM | 49 ± 8 nM | approximately 70% | – | –
COc1cc2c(cc1O)C(CCc1ccc(Cl)cc1)N(C)CC2 (stereo not shown) [Ro 04‐5595] | 186 ± 35 nM | 186 ± 32 nM | – | – | – | – | < 200 nM | –
OC(CN1CCC(Cc2ccc(F)cc2)CC1)c1ccc(Cl)cc1 (stereo not shown) [Eliprodil, eliprodil] | 1260 ± 683 nM | 1300 ± 700 nM | – | 780 ± 90 nM | 930 ± 140 nM | – | – | ~70%
